Test system: Enterococcus faecalis BKM B-871
Assay: Antibacterial activity, serial dilutions in liquid MH medium
Format: cell-based
Settings: for MIC: MH medium, 20 h, 37° C., 100% growth inhibition; for MBC: no colonies on agarized MH medium
How it was run: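 Broth microdilution in Mueller-Hinton medium at 37 °C with stirring, using exponential-phase cultures seeded at 5×10^4 to 1×10^5 cells/mL with twofold serial compound dilutions. Growth inhibition read as A595 after 20 h, corrected for compound absorbance; MIC and MBC determined.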

Row | Compound | MIC [µM] | MBC [µM]
1 | 6,7-bis-[(Diamide N^α-L-Arginyl)-L-glutamyl]-Protohemin (IX) | 25 | 50
2 | C=CC1=C(C)c2cc3[n-]c(cc4[n-]c(cc5nc(cc1n2)C(C)=C5C=C)c(C)c4CCC(=O)N[C@@H](CCCNC(=N)N)C(N)=O)c(CCC(=O)N[C@@H](CCCNC(=N)N)C(N)=O)c3C.[Cl-].[Fe+3] [II, 6,7-bis-(Amide N^α-Arginyl)-Protohemin (IX)] | 6.3 | 12.5

From patent US9605013B2, “Derivatives of hemin with antibacterial and antiviral activity” (OBSCHESTVO S OGRANICHENNOI OTVETSTVENNOSTIYU …, priority 2011, dated 2017)
